In US20040191297A1, “Carotenoid formulation” (priority 1997, published 2004):
Several values for one entry are separate records, joined by “and”; a condition that tells them apart may be missing. Equal values may be shown once.

Columns and labels:
[1] = Dietary lycopene stability, AIN-76A diet at 4 °C in the dark; type: physicochemical; details: for % (diet concentration 744 μg/g as 100%) / Lycopene concentration: 4 °C dark; for Lycopene concentration: AIN-76A diet
Experimental: The stability of the lycopene suspension once incorporated into the diet was assessed in two ways. The first was by placing the diet containing the suspension at 4° C. in the dark for a period of 3 weeks (Table 8A,B).
(§1) At various time points, a diet sample was taken and lycopene was extracted as follows: Approximately 0.5 to 1.0 g of sample was added to a 15 ml volume of extraction solvent consisting of 40% acetonitrile, 20% hexane, 20% methanol and 20% methylenechloride. The mixture was sonicated for 2 minutes and allowed to stand for 5 minutes. The reddish-orange clear supernatant was then decanted. This process was repeated 4 times, at which time the supernatant was colorless. Solvent was then added to a volume of 25 to 100 ml, the mixture centrifuged, and the supernatant decanted. All supernatants were then mixed. The above solvent serves two purposes; first, it is the most efficient mixture for lycopene, and second, it is the same solvent used for injecting lycopene samples into the HPLC.

[2] = Stability of lycopene incorporated into AIN-76A diet at ambient temperature in food cup (air and light); type: physicochemical; details: for Concentration: ambient temperature
Experimental: as §1
The second was by exposing the lycopene-containing diet to air and light, as is the case in an actual feeding study. The stability of lycopene in the food cup where it is exposed to light and air is seen in Table 9.

[3] = Carotenoid content of Lycopene Suspension-supplemented diets after 7 months storage; type: physicochemical; details: for Carotenoid content of diet: stored at −20 °C for 7 months
Experimental: When the Lycopene Suspension (Henkel Corporation, La Grange, Ill.) was extracted by organic extraction methods, the major carotenoid was lycopene, but a number of other carotenoids were known to be present in tomatoes, α- and β-Carotene, phytofluene and phytoene were also present (FIGS. 6 & 7). The quantitative profile of carotenoids in the Lycopene Suspension was carried out using an HPLC system as described above, equipped with a photodiode array detector. The six major components can be seen in Table 7.
(Table 10). Note that all the major carotenoids plus the lycopene metabolite present in the Lycopene Suspension are present in the diets in the same relative proportions. However, the net loss of lycopene over 7 months was 66%, 38%, 40%, 44% and 60%, in treatment groups 1-5, respectively; in contrast, β-carotene concentrations declined by only 10% of original values over the same time period.

[4] = Ten-week MTD feeding study: weight gain and toxicity; type: in vivo
Experimental: Inbred Fischer F344 males (n=70) and females (n=70) were obtained from Taconic Farms, Germantown, N.Y. At about 35 days of age, all animals were transferred to the experimental room from quarantine. The animals were then allocated into experimental groups using formal randomization methods to ensure that each group contained animals of the same mean weight.
A ten-week pilot study was conducted as described in Table 2 & FIG. 2 to determine the maximal tolerated dose (MTD) for lycopene in both male (colon model) and female (breast model) rats. The choice of dose ranges was based on published values for β-carotene. A mixed carotenoid composition containing 5.7% carotenoids, including 3.7% pure lycopene was suspended in medium chain triglycerides (this composition will be referred to below as the “Lycopene Suspension”). The Lycopene Suspension was incorporated into the AIN-76A diet.
Differences in the lipid content of the various treatment groups were controlled by supplementing their diets with appropriate amounts of Neobee® medium chain triglyceride (Stepan Co., Maywood, N.J.) such that all animals, including controls, received the same amount of dietary fat.
Animal weights were recorded once per week and animal appearance (coat texture) and food avoidance behavior assessed. By concentration,
the maximal tolerated dose is that dose which […] mean body weight loss.

[5] = Concentration of lycopene in rat lung; type: in vivo, Fischer 344 rats
Experimental: Extraction of lycopene from diet was as follows: A sample of diet containing lycopene was suspended in the injection solvent (Table 4) and homogenized in a polytron homogenizer. Echinenone was added as an internal standard and the mixture centrifuged at 3000 rpm at 4° C. for 15 minutes. The supernatant was decanted and saved and the extraction repeated. The pooled extracts were then dried under N2 gas at 60° C. and the residue dissolved in 0.5 ml injection solvent and then subjected to HPLC analysis. The same method, with minor variations, was used for feces and for lung tissue. The efficiency of lycopene extraction from the diet is shown in Table 6 A&B. At any concentration tested the efficiency ranged from 75% at the highest concentration to 100% for the lowest concentration of lycopene.
homogenized. […] This hexane extraction procedure was repeated 5-7 times.

retinol = test: Liver vitamin A assay; type: in vivo, Fischer 344 rats; details: male
[6] = female rat, Group 1, 1280 in diet
[7] = female rat, Group 2, 512 in diet
[8] = female rat, Group 3, 256 in diet
[9] = female rat, Group 4, 128 in diet
[10] = female rat, Group 5, 51 in diet
[11] = male rat, Group 1, 1280 in diet

CC(C)=CCC/C(C)=C/C=C/C(C)=C/C=C/C(C)=C/C=C/C=C(C)/C=C/C=C(C)/C=C/C=C(\C)CCC=C(C)C [Lycopene]
% (diet concentration 744 μg/g as 100%) ([1]; 1 day): 101%
% (diet concentration 744 μg/g as 100%) ([1]; 8 days): 98%
% (diet concentration 744 μg/g as 100%) ([1]; 14 days): 90%
% (diet concentration 744 μg/g as 100%) ([1]; 21 days): 72%
amount remaining relative to day 1 ([1]; 4 °C in the dark, 3 weeks): about 72%
decomposition ([1]; 4 °C in the dark, two weeks): about 10%
stability in the diet ([1]; 21 days in the dark at 4 °C): stable
Lycopene concentration ([1]; 1 day in refrigerator): 748 µg/g
Lycopene concentration ([1]; 8 days in refrigerator): 728 µg/g
Lycopene concentration ([1]; 14 days in refrigerator): 672 µg/g
Lycopene concentration ([1]; 21 days in refrigerator): 534 µg/g
stability in the diet ([2]; 7 days at ambient light and temperature): stable
Concentration ([2]; AIN-76A diet, 0 days in food cup): 744 µg/g
Concentration ([2]; 2 days in food cup): 702 µg/g
Concentration ([2]; 3 days in food cup): 616 µg/g
Concentration ([2]; 6 days in food cup): 547 µg/g
Concentration ([2]; 7 days in food cup): 439 µg/g
Concentration ([2]; 9 days in food cup): 624 µg/g
Concentration ([2]; 10 days in food cup): 576 µg/g
Concentration ([2]; 13 days in food cup): 449 µg/g
Concentration ([2]; 14 days in food cup): 419 µg/g
Concentration ([2]; 15 days in food cup): 425 µg/g
Concentration ([2]; 17 days in food cup): 431 µg/g
Concentration ([2]; 20 days in food cup): 385 µg/g
Concentration ([2]; 21 days in food cup): 376 µg/g
original lycopene no longer measurable ([2]; food cup, air and light, 3 weeks): one-half
lycopene lost ([2]; food cup, air and light, 48-hour period): a small amount is lost
total lycopene lost ([2]; food cup, air and light, 72 hours): approximately 20%
Carotenoid content of diet ([3]; Diet 1, 2.5 mM/kg diet): 472 μg/gm (ppm)
Carotenoid content of diet ([3]; Diet 2, 1.0 mM/kg diet): 348 μg/gm (ppm)
Carotenoid content of diet ([3]; Diet 3, 0.5 mM/kg diet): 168 μg/gm (ppm)
Carotenoid content of diet ([3]; Diet 4, 0.25 mM/kg diet): 92 μg/gm (ppm)
Carotenoid content of diet ([3]; Diet 5, 0.10 mM/kg diet): 22 μg/gm (ppm)
net loss over 7 months ([3]; diet of treatment group 1, 7 months storage): 66%
net loss over 7 months ([3]; diet of treatment group 2, 7 months storage): 38%
net loss over 7 months ([3]; diet of treatment group 3, 7 months storage): 40%
net loss over 7 months ([3]; diet of treatment group 4, 7 months storage): 44%
net loss over 7 months ([3]; diet of treatment group 5, 7 months storage): 60%
toxicity ([4]; F-344 rat, dose range used): no evidence of lycopene toxicity
difference in weight gains between doses ([4]; analysis of variance for repeated measures): no difference
weight gain difference, control vs supplemented rats ([4]; end of 10 weeks): ≤ 10%
effect on food intake or weight gain ([4]; male and female rats, dosage range used): no deleterious effect
Concentration of lycopene in lung, average [5, 6]: 227 ngs/gm
Concentration of lycopene in lung, individual [5, 6]: 184 ngs/gm and 270 ngs/gm
Concentration of lycopene in lung, average [5, 7]: 246 ngs/gm
Concentration of lycopene in lung, individual [5, 7]: 211 ngs/gm and 280 ngs/gm
Concentration of lycopene in lung, average [5, 8]: 193 ngs/gm
Concentration of lycopene in lung, individual [5, 8]: 243 ngs/gm and 142 ngs/gm
Concentration of lycopene in lung, average [5, 9]: 211 ngs/gm
Concentration of lycopene in lung, individual [5, 9]: 208 ngs/gm and 214 ngs/gm
Concentration of lycopene in lung, average [5, 10]: 134 ngs/gm
Concentration of lycopene in lung, individual [5, 10]: 144 ngs/gm and 124 ngs/gm
Concentration of lycopene in lung, average [5, 11]: 190 ngs/g
Concentration of lycopene in lung, individual [5, 11]: 193 ngs/g and 187 ngs/g
Concentration of lycopene in lung, average ([5]; male rat, Group 2, 512 in diet): 214 ngs/g
Concentration of lycopene in lung, individual ([5]; male rat, Group 2, 512 in diet): 170 ngs/g and 257 ngs/g
Concentration of lycopene in lung, average ([5]; male rat, Group 3, 256 in diet): 375 ngs/g
Concentration of lycopene in lung, individual ([5]; male rat, Group 3, 256 in diet): 325 ngs/g and 424 ngs/g
Concentration of lycopene in lung, average ([5]; male rat, Group 4, 128 in diet): 201 ngs/g
Concentration of lycopene in lung, individual ([5]; male rat, Group 4, 128 in diet): 239 ngs/g and 162 ngs/g
Concentration of lycopene in lung, average ([5]; male rat, Group 5, 51 in diet): 151 ngs/g
Concentration of lycopene in lung, individual ([5]; male rat, Group 5, 51 in diet): 167 ngs/g and 135 ngs/g
Liver retinol (retinol; Group 7, lycopene 1280 mg/kg diet): 388 μg/gm
Liver retinol (retinol; Group 8, lycopene 512 mg/kg diet): 119 μg/gm
Liver retinol (retinol; Group 9, lycopene 256 mg/kg diet): 584 μg/gm
Liver retinol (retinol; Group 11, lycopene 51 mg/kg diet): 454 μg/gm
